Test results as given in patent US20250243188A1, “METHIONINE ADENOSYLTRANSERASE 2A INHIBITORS” (IDEAYA BIOSCIENCES, INC., priority 2022, published 2025).

biological target: Human MAT2A (Homo sapiens (Human), UniProt P31153); experiment: Phosphate Sensor Fluorescence Assay (MAT2A enzyme inhibition); format: biochemical; conditions: MAT2A (1-395) 5.8 nM, 500 uM L-methionine, 500 uM ATP
Method: The ability of the compound of present disclosure to inhibit MAT2A enzyme was determined using a Phosphate Sensor Fluorescence Assay described below.
MAT2A enzyme is incubated with a test compound in DMSO or DMSO and its substrates (L-methionine and ATP) in a microtiter plate. The enzymatic reaction is stopped by the addition of Working Phosphate Sensor Mixture. The plate is analyzed for fluorescence at 450 nm. The high control (DMSO with enzyme and its substrates) gives high fluorescence which represents no inhibition of enzymatic activity while the low control (DMSO with MAT2A substrates and no enzyme) gives low fluorescence which represents full inhibition of enzymatic activity.
• Human MAT2A: Cepter, amino acids 1-395 (Clone ID 334, lot 00023-148) • Tris, pH 7.5: Invitrogen cat #15567-027 • KCl: Ambion cat #AM9640G • MgCl2: Ambion cat #AM9530G • Brij-35: Sigma cat B4184-10ML • DTT: Goldbio cat #DTT100 • BGG: Sigma cat #G5009-25G • PNP: Novus Biologicals cat #NBP1-50872 • 7-MEG: Cayman Chemical cat #15988 • L-Methionine: JTBaker P/N 2085-05 • ATP: Promega P/N V915B • Phosphate Sensor: Thermo Fisher cat #PV4407 • EDTA: Invitrogen cat #15575-038 • Assay plate: 384-well black polypropylene plate: Corning P/N 3573
• Assay Buffer: 50 mM Tris, pH 7.5/50 mM KCl/10 mM MgCl2/0.01% Brij-35/1 mM DTT/0.01% BGG/40 nM PNP/6 uM 7-MEG • MAT2A: 5.8 nM MAT2A (1-395), Cepter, clone ID 334, lot 00023-148 before the addition of Working Phosphate Sensor Mixture • L-methionine: 500 uM before the addition of Working Phosphate Sensor Mixture • ATP: 500 uM before the addition of Working Phosphate Sensor Mixture
For the assay, a mixture of 1 mM L-methionine/1 mM ATP (2× final pre-stopped concentration) in assay buffer; MAT2A (2× final pre-stopped concentration) in Assay Buffer and Working Phosphate Sensor Mixture (1.5 uM Phosphate Sensor/30 mM EDTA in Assay Buffer, which is 3× final concentrations) were prepared. Test compounds or DMSO were added to the appropriate well using a Beckman Coulter Echo 550 acoustic liquid handler. 10 μl/well of Assay Buffer was added to the wells corresponding to the negative control and 10 μl/well of MAT2A was added to all the wells except for those corresponding to the negative control. After incubating the plate at room temperature for 15 minutes, 10 μl/well of the 1 mM L-methionine/1 mM ATP mixture was added to all wells. The plate was centrifuged at 1000 rpm for 1 minute and then incubated at room temperature for 1 hour. 10 μl of the Working Phosphate Sensor Mixture was added to all wells and the plate was centrifuged at 1000 rpm for 1 minute. The plate was read for fluorescence at 450 nm after exciting at 430 nm on a Tecan Spark microplate reader.
Percent inhibition was calculated in Chemical and Biological Information System (CBIS), (ChemInnovation Software Inc.). Curves were fitted by CBIS as % inhibition vs. log [compound concentration] using a 4-parameter inhibition model.

Human MAT2A, sequence (P31153 whole entry): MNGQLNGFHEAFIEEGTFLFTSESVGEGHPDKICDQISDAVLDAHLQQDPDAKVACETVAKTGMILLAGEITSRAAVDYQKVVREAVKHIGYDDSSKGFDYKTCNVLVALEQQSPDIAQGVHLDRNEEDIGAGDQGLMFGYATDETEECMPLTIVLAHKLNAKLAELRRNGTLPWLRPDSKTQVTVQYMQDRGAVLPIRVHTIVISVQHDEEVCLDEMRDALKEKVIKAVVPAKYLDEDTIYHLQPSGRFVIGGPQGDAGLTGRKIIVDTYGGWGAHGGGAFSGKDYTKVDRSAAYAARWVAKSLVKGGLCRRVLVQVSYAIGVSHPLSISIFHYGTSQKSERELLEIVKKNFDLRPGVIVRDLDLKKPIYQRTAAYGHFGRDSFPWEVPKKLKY

Row | Structure (SMILES) | IC50
1 | CN(C)c1nc(=O)n(-c2cccc(OCc3csc(-n4c(=O)nc(N(C)C)c5ccc(Cl)cc54)c3)c2)c2cc(Cl)ccc12 [Example 12, 7-Chloro-1-(4-((3-(7-chloro-4-(dimethylamino)-2-oxoquinazolin-1(2H)-yl)phenoxy)methyl)thiophen-2-yl)-4-(dimethylamino)quinazolin-2(1H)-one] | < 200 nM
2 | O=C(Nc1cccc(-n2c(=O)[nH]c(=O)c3ccc(Cl)cc32)c1)c1csc(-n2c(=O)[nH]c(=O)c3ccc(Cl)cc32)c1 [Example 2, 5-(7-Chloro-2,4-dioxo-3,4-dihydroquinazolin-1(2H)-yl)-N-(3-(7-chloro-2,4-dioxo-3,4-dihydroquinazolin-1(2H)-yl)phenyl)thiophene-3-carboxamide] | < 200 nM
3 | Cn1c(-n2c(=O)[nH]c(=O)c3ccc(Cl)cc32)cnc1C(=O)Nc1cccc(-n2c(=O)[nH]c(=O)c3ccc(Cl)cc32)c1 [Example 9, 5-(7-Chloro-2,4-dioxo-3,4-dihydroquinazolin-1(2H)-yl)-N-(3-(7-chloro-2,4-dioxo-3,4-dihydroquinazolin-1(2H)-yl)phenyl)-1-methyl-1H-imidazole-2-carboxamide] | < 200 nM
4 | O=C(Nc1cccc(-n2c(=O)[nH]c(=O)c3ccc(C(F)(F)F)cc32)c1)c1csc(-n2c(=O)[nH]c(=O)c3ccc(C(F)(F)F)cc32)c1 [Example 5, 5-(2,4-Dioxo-7-(trifluoromethyl)-3,4-dihydroquinazolin-1(2H)-yl)-N-(3-(2,4-dioxo-7-(trifluoromethyl)-3,4-dihydroquinazolin-1(2H)-yl)phenyl)thiophene-3-carboxamide] | < 200 nM
5 | O=C(Nc1cccc(-n2c(=O)[nH]c(=O)c3ccc(Cl)cc32)c1)c1cccc(-n2c(=O)[nH]c(=O)c3ccc(Cl)cc32)c1 [Example 7, 3-(7-Chloro-2,4-dioxo-3,4-dihydroquinazolin-1(2H)-yl)-N-(3-(7-chloro-2,4-dioxo-3,4-dihydroquinazolin-1(2H)-yl)phenyl)benzamide] | < 200 nM
6 | CN(C)c1nc(=O)n(-c2cccc(NCc3csc(-n4c(=O)nc(N(C)C)c5ccc(Cl)cc54)c3)c2)c2cc(Cl)ccc12 [Example 11, 7-Chloro-1-(4-(((3-(7-chloro-4-(dimethylamino)-2-oxoquinazolin-1(2H)-yl)phenyl)amino)methyl)thiophen-2-yl)-4-(dimethylamino)quinazolin-2(1H)-one] | < 200 nM
7 | CN(C)c1nc(=O)n(-c2cccc(NC(=O)c3csc(-n4c(=O)nc(N(C)C)c5ccc(C(F)(F)F)cc54)c3)c2)c2cc(C(F)(F)F)ccc12 [Example 6, 5-(4-(Dimethylamino)-2-oxo-7-(trifluoromethyl)quinazolin-1(2H)-yl)-N-(3-(4-(dimethylamino)-2-oxo-7-(trifluoromethyl)quinazolin-1(2H)-yl)phenyl)thiophene-3-carboxamide] | < 200 nM

Further lines, results first:

Row | IC50 | Structure (SMILES)
8 | < 200 nM | CN(C)c1nc(=O)n(-c2cccc(NC(=O)c3ncc(-n4c(=O)nc(N(C)C)c5ccc(Cl)cc54)n3C)c2)c2cc(Cl)ccc12 [Example 4, 5-(7-Chloro-4-(dimethylamino)-2-oxoquinazolin-1(2H)-yl)-N-(3-(7-chloro-4-(dimethylamino)-2-oxoquinazolin-1(2H)-yl)phenyl)-1-methyl-1H-imidazole-2-carboxamide]
9 | < 200 nM | CN(C)c1nc(=O)n(-c2cccc(NC(=O)c3cnc(-n4c(=O)nc(N(C)C)c5ccc(Cl)cc54)s3)c2)c2cc(Cl)ccc12 [Example 8, 2-(7-Chloro-4-(dimethylamino)-2-oxoquinazolin-1(2H)-yl)-N-(3-(7-chloro-4-(dimethylamino)-2-oxoquinazolin-1(2H)-yl)phenyl)thiazole-5-carboxamide]
10 | < 200 nM | CN(C)c1nc(=O)n(-c2cccc(NC(=O)c3csc(-n4c(=O)nc(N(C)C)c5ccc(Cl)cc54)c3)c2)c2cc(Cl)ccc12 [Example 1, 5-(7-Chloro-4-(dimethylamino)-2-oxoquinazolin-1(2H)-yl)-N-(3-(7-chloro-4-(dimethylamino)-2-oxoquinazolin-1(2H)-yl)phenyl)thiophene-3-carboxamide]
11 | < 200 nM | CN(C)c1nc(=O)n(-c2cccc(NC(=O)c3cc(-n4c(=O)nc(N(C)C)c5ccc(Br)cc54)n(C)n3)c2F)c2cc(Cl)ccc12 [Example 10, 5-(7-Bromo-4-(dimethylamino)-2-oxoquinazolin-1(2H)-yl)-N-(3-(7-chloro-4-(dimethylamino)-2-oxoquinazolin-1(2H)-yl)-2-fluorophenyl)-1-methyl-1H-pyrazole-3-carboxamide]
12 | < 200 nM | Cc1c(C(=O)Nc2cccc(-n3c(=O)nc(N(C)C)c4ccc(Cl)cc43)c2)csc1-n1c(=O)nc(N(C)C)c2ccc(Cl)cc21 [Example 3, 5-(7-Chloro-4-(dimethylamino)-2-oxoquinazolin-1(2H)-yl)-N-(3-(7-chloro-4-(dimethylamino)-2-oxoquinazolin-1(2H)-yl)phenyl)-4-methylthiophene-3-carboxamide]
